Measurements as given in publication PMC11642236, “Valorization of Hom Thong Banana Peel (Musa sp., AAA Group) as an Anti-Melanogenic Agent Through Inhibition of Pigmentary Genes and Molecular Docking Study” (International Journal of Molecular Sciences, 2024).
Values after ≈ are worked out from the molar mass of the structure shown.

Molecular target: T1, mushroom tyrosinase
T1 construct: gene PPO3; PDB 2Y9X used only for docking
Test: L-dopachrome formation, absorbance at […] nm
Type: biochemical, Agaricus bisporus
Conditions: L-DOPA as substrate (diphenolase); 0.1 M phosphate buffer, room temperature, 30 min

For `O=C(O)/C=C/c1ccccc1O` [o-Coumaric acid], the “IC50 Values (mg/mL) / L-DOPA as the Substrate” value (“IC50 Values (mg/mL) / L-DOPA” below) was 4.19 ± 0.15 mg/mL (≈ 25.5 mM).
In the case of `COc1cc(/C=C/C(=O)O)ccc1O` [Ferulic acid], the “IC50 Values (mg/mL) / L-DOPA” value was 3.93 ± 0.09 mg/mL (≈ 20.2 mM).
In the case of `O=C(/C=C/c1ccc(O)c(O)c1)O[C@H](Cc1ccc(O)c(O)c1)C(=O)O` [Rosmarinic acid], the “IC50 Values (mg/mL) / L-DOPA” value was 3.62 ± 0.08 mg/mL (≈ 10 mM).
For `OC[C@H]1O[C@@H](Oc2ccc(O)cc2)[C@H](O)[C@@H](O)[C@@H]1O` [Arbutin, reference compound], the “IC50 Values (mg/mL) / L-DOPA” value was 3.44 ± 0.04 mg/mL (≈ 12.6 mM).
For `Oc1cc(O)c2c(c1)O[C@H](c1ccc(O)c(O)c1)[C@@H](O)C2` [Catechin], the “IC50 Values (mg/mL) / L-DOPA” value was 6.42 ± 0.45 mg/mL (≈ 22.1 mM).
